Data taken from patent US10953027B2, “Active agents and methods of their use for the treatment of metabolic disorders and nonalcoholic fatty liver disease” (Flagship Pioneering Innovations V, Inc., priority 2018, dated 2021).

What was measured:
[1] = Assay 1. Stability in Simulated Gastric Fluid (SGF); assay type: in vitro ADME; settings: 1 μM, 37° C., SGF pH 1.6 with pepsin
Protocol: Assay 1. Stability of acylated active agents in Simulated Gastric Fluid (SGF). This assay was used to assess the stability of an acylated active agent in a stomach.
Medium was prepared by dissolving 2 g of sodium chloride in 0.6 L of ultrapure water (MilliQ®, Millipore Sigma, Darmstadt, Germany). The pH was adjusted to 1.6 with 1N hydrochloric acid, and the volume was then adjusted to 1 L with purified water.
60 mg FaSSIF powder (Biorelevant™, London, UK) were dissolved in 500 mL buffer (above). Pepsin was added (0.1 mg/mL) (Millipore Sigma, Darmstadt, Germany), and the solution was stirred. The resulting SGF media were used fresh for each experiment.
Test compounds were dissolved in DMSO stock to 1 mM. An aliquot of the DMSO stock solution was removed and diluted in the SGF Media in 15 mL falcon tubes to generate a compound concentration of 1 μM. A 1 mL aliquot was immediately removed and diluted once with 1 volume of acetonitrile for T0 timepoint. The mixture was sealed and mixed at 37° C. in an incubator. Aliquots (1 mL) were removed at regular intervals and immediately quenched by the addition of 1 volume of acetonitrile. The resulting samples were analyzed by LC/MS to determine degradation rates in SGF.

[2] = Assay 2. Stability in Simulated Intestinal Fluid (SIF); assay type: in vitro ADME; settings: 1 μM, 37° C., SIF pH 6.7 with pancreatin
Protocol: Assay 2. Stability of acylated active agents in Simulated Intestinal Fluid (SIF). This assay was used to assess the stability of an acylated active agent in a small intestine.
Phosphate buffer was prepared by dissolving 0.42 g of sodium hydroxide pellets and 3.95 g of monobasic sodium phosphate monohydrate and 6.19 g of sodium chloride in ultrapure water (MilliQ®, Millipore Sigma, Darmstadt, Germany). The pH was adjusted to 6.7 using aq. HCl and aq. NaOH, as necessary, and the solution was diluted with ultrapure water to produce 1 L of the pH 6.7 buffer.
112 mg FaSSIF powder (Biorelevant™, London, UK) was dissolved in 50 mL of the pH 6.7 buffer. 2 to 3 mL of the resulting solution were then added to 500 mg pancreatin (Millipore Sigma, Darmstadt, Germany). The resulting mixture was agitated by finger tapping the vessel containing the mixture until milky suspension formed. At this time, the remainder of the 50 mL FaSSiF/pH 6.7 buffer solution was added. The resulting suspension was flipped upside down 10 times to produce SIF, which was used fresh.
Test compounds were dissolved in DMSO stock to 1 mM. An aliquot of the DMSO stock solution was removed and diluted in the SIF media in 15 mL falcon tubes to produce a mixture with a tested compound concentration of 1 μM. A 1 mL aliquot was immediately removed and diluted once with 1 volume of acetonitrile for T0 timepoint. The mixture was sealed and agitated at 37° C. in an incubator. Aliquots (1 mL) were removed at regular intervals and immediately quenched by the addition of 1 volume of acetonitrile. The resulting samples were analyzed by LC/MS to determine degradation rates.

Structure (SMILES)	Assay 1 (SGF) (% Remaining @ 1 hours) [1]	Assay 2 (SIF) (% @ Remaining 4 hours) [2]
CCCC(=O)O[C@@H]1[C@@H](OC(=O)CCC)[C@H](Oc2ccc(N)cc2C(=O)O)OC[C@H]1OC(=O)CCC [Compound 34, 5-amino-2-[(2S,3R,4S,5R)-3,4,5-tri(butanoyloxy)tetrahydropyran-2-yl]oxy-benzoic Acid]	C (C: >75% of the tested compound remaining)	C (C: >75% of the tested compound remaining)
CCCC(=O)Oc1ccc(/N=N/c2ccc(OC(=O)CCC)c(C(=O)O)c2)cc1C(=O)O [Compound 32, 2-butanoyloxy-5-[(E)-(4-butanoyloxy-3-carboxy-phenyl)azo]benzoic Acid]	A (A: <25% of the tested compound remaining)	A (A: <25% of the tested compound remaining)
CC(=O)Oc1cc(OC(C)=O)c2c(=O)c(OC(C)=O)c(-c3cc(OC(C)=O)c(OC(C)=O)c(OC(C)=O)c3)oc2c1 [Compound 23, [3,5-diacetoxy-4-oxo-2-(3,4,5-triacetoxyphenyl)chromen-7-yl] acetate]	C (C: >75% of the tested compound remaining)	A (A: <25% of the tested compound remaining)
CCC(=O)O[C@@H]1[C@@H](OC(=O)CC)[C@H](OC(=O)CC)CO[C@H]1O [Compound 161, (2R,3R,4S,5R)-2-hydroxy-4,5-bis(propanoyloxy)oxan-3-yl Propanoate]	C (C: >75% of the tested compound remaining)	A (A: <25% of the tested compound remaining)
CCCC(=O)O[C@@H]1[C@@H](OC(=O)CCC)[C@@H](Oc2ccc(N)cc2C(=O)O)OC[C@H]1OC(=O)CCC [Compound 33, 5-amino-2-[(2R,3R,4S,5R)-3,4,5-tri(butanoyloxy)tetrahydropyran-2-yl]oxy-benzoic Acid]	C (C: >75% of the tested compound remaining)	C (C: >75% of the tested compound remaining)
CCCC(=O)O[C@H]1[C@@H](OC(=O)CCC)COC(O)[C@@H]1OC(=O)CCC (stereo partly drawn) [Compound 72, (3R,4S,5S)-2-hydroxytetrahydro-2H-pyran-3,4,5-triyl Tributyrate]	C (C: >75% of the tested compound remaining)	A (A: <25% of the tested compound remaining)
C[C@@H](O)CCOC(=O)c1cc(N)ccc1O [Compound 39, [(3R)-3-hydroxybutyl] 5-amino-2-hydroxy-benzoate]	C (C: >75% of the tested compound remaining)	C (C: >75% of the tested compound remaining)
CCC(=O)O[C@H](C)CCOC(=O)Oc1ccc(/C=C/c2cc(OC(=O)OCC[C@@H](C)OC(=O)CC)cc(OC(=O)OCC[C@@H](C)OC(=O)CC)c2)cc1 [Compound 77, (2R,2′R)-((((5-((E)-4-((((R)-3-(propionyloxy)butoxy)carbonyl)oxy)styryl)-1,3-phenylene)bis(oxy))bis(carbonyl))bis(oxy))bis(butane-4,2-diyl) dipropionate]	B (B: 25-75% of the tested compound remaining)	A (A: <25% of the tested compound remaining)
CCCC(=O)Oc1ccc(/C=C/c2cc(OC(=O)CCC)cc(OC(=O)CCC)c2)cc1 [Compound 1, [4-[(E)-2-[3,5-di(butanoyloxy)phenyl]vinyl]phenyl] butanoate]	C (C: >75% of the tested compound remaining)	B (B: 25-75% of the tested compound remaining)
CC(=O)OC[C@H]1O[C@@H](Oc2c(C)c(C)c3c(c2C)CC[C@@](C)(CCC[C@H](C)CCC[C@H](C)CCCC(C)C)O3)[C@H](OC(C)=O)[C@@H](OC(C)=O)[C@@H]1OC(C)=O [Compound 63, [(2R,3R,4S,5R,6S)-3,4,5-triacetoxy-6-[(2R)-2,5,7,8-tetramethyl-2-[(4R,8R)-4,8,12-trimethyltridecyl]chroman-6-yl]oxy-tetrahydropyran-2-yl]methyl Acetate]	C (C: >75% of the tested compound remaining)	C (C: >75% of the tested compound remaining)
